# Measured values reported in patent US20260199305A1, “LONG-ACTING ORAL PHARMACEUTICAL COMPRISING HYPOXIA-INDUCIBLE FACTOR PROLYL HYDROLASE INHIBITOR AND USE THEREOF” (Kind Pharmaceutical, priority 2023, published 2026).
# Key:
# HIF PHD-2 = target: T1, HIF PHD-2 (Homo sapiens, UniProt Q9GZT9); assay: Inhibitory effect on HIF PHD-2 (HIF-1α peptide hydroxylation, HPLC); type: biochemical; details: PHD2 enzyme, 30° C., 2 hours, read-out: IC50 against HIF PHD-2
# T1 construct: purchased Active Motif
# T1 sequence (Q9GZT9 whole entry): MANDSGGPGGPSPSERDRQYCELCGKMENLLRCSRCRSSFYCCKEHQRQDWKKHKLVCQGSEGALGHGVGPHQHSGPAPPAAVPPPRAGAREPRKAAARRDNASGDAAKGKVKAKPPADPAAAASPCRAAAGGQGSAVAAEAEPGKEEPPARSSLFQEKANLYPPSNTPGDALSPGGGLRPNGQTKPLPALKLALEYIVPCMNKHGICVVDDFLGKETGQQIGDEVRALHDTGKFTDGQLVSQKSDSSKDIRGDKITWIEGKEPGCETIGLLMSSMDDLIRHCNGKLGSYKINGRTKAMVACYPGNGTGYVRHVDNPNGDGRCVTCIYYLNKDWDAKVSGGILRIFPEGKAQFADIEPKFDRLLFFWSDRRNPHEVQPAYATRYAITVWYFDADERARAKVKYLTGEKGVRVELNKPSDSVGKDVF
# Method: Stock solutions of the following reagents were prepared: HEPES buffer (pH 7.4, 50 mM), HIF-1α peptide (sequence: DLDLEMLAPYIPMDDDFQL; Genscript) solution in DMSO/HEPES (0.5 mM; preparation method: first prepare a 20 mM solution of this peptide in DMSO, then dilute it 40-fold with the HEPES buffer), ascorbic acid solution (10 mM), FeSO4 in hydrochloric acid solution (0.1 mM FeSO4, 10 μM HCl), 2-oxoglutaric acid solution (2-OG: 1 mM), EDTA solution (pH 8.0; 0.5 M), and eight concentrations of Comp-1/DMSO solutions (concentrations: 4000 μM, 1333 μM, 444.4 μM, 148.1 μM, 49.4 μM, 16.5 μM, 5.5 μM, and 1.82 μM). The following reagents were added to nine Eppendorf tubes: 50 μL HEPES solution, 10 μL ascorbic acid solution, 10 μL FeSO4 in HCl solution, 10 μL 2-OG solution, 10 μL HIF-1α peptide solution; then 5 μL of each of the eight Comp-1/DMSO solutions and 5 μL of DMSO were added separately; finally, 5 μL of PHD2 enzyme (Active Motif; concentration: 0.2 μg/μL) was added to each tube. Each of the resulting reaction systems was incubated at 30° C. in dark for 2 hours. Finally, 10 μL of EDTA solution was added to each tube to terminate the reaction. […] The concentrations of HIF-peptide and hydroxylated peptide were quantified using a UV absorption detector to calculate their ratio. The IC50 was calculated using GraphPad Prism 6.0 software.
# [1] = system: patients with chronic kidney disease anemia; assay: Phase 2 clinical trial in patients with chronic kidney disease anemia (hemoglobin, adverse events); type: in vivo, human; details: for mean rate of hemoglobin increase: end of dose-fixing period (5 weeks); for mean hemoglobin level: Weeks 6-14 (entire titration period); for cumulative percentage of patients achieving target hemoglobin range 10.0-11.0 g/dL and increase of ≥1.0 g/dL from baseline: entire 13-week treatment period; for TEAE, % of patients / TEAE, NE (total number of adverse events) / TEAE, n (number of patients experiencing adverse events) / Treatment-related TEAE, % of patients / Treatment-related TEAE, NE (total number of adverse events) / Treatment-related TEAE, n (number of patients experiencing adverse events): titration period
# Method: A Phase 2, randomized, double-blind, placebo-controlled clinical study of Comp-1 in patients with chronic kidney disease anemia included a total treatment period of 13 weeks, divided into an initial 5-week dose-fixing period and a subsequent 8-week dose adjustment period (also referred to as the titration period). A total of 113 patients with renal anemia were initially randomized into the dose-fixing period. During the dose-fixing period, patients with renal anemia received Comp-1 8 mg, 12 mg, or 16 mg three times weekly (TIW), or a matching placebo. At the Week 6 study visit, a total of 44 eligible patients underwent a second randomization into the dose adjustment period (titration period). […] The starting dose in this phase was the same as the dose during the dose-fixing period and could be adjusted based on weekly hemoglobin values to maintain hemoglobin within the target range of 10.0-11.0 g/dL, inclusive. To maintain blinding, patients in the placebo group underwent pseudo-randomization and continued to receive matching placebo. During the study, patients were visited weekly to measure the primary efficacy indicator, i.e. hemoglobin level, and safety comparisons were made for patients entering the titration period according to dosing frequency (three times weekly (TIW) dosing vs. once weekly (QW) dosing).
# The primary efficacy objective of the study was to compare the mean rate of hemoglobin increase (g/dL/week) at the end of the dose-fixing period (i.e., after 5 weeks of dosing) between the three Comp-1 dose groups and the placebo group. […] In the analysis of hemoglobin during the adjustment period (titration period), at Week 14 (i.e., at the end of the titration period or after 13 weeks of dosing), the mean levels of hemoglobin in the pooled Comp-1 TIW group and QW group were 10.74 g/dL and 10.09 g/dL, respectively, both maintained within the study target range of 10.0-11.0 g/dL inclusive, while the mean level of hemoglobin in the placebo group was 9.57 g/dL. During the later part of the adjustment period (titration period), i.e., Weeks 10-14, the mean levels of hemoglobin were >10.0 g/dL in all dose frequency groups including the placebo group: 10.73 g/dL and 10.77 g/dL in the pooled Comp-1 TIW and QW groups, respectively, and 10.26 g/dL in the placebo group. The change in hemoglobin level from baseline was 1.60 g/dL and 1.63 g/dL in the pooled Comp-1 TIW and QW groups, respectively, and 0.48 g/dL in the placebo group. […] In the analysis of hemoglobin throughout the entire adjustment period (titration period), i.e., Weeks 6-14, the mean hemoglobin levels in the pooled Comp-1 TIW and QW groups were 10.84 g/dL and 10.91 g/dL, respectively, compared to 10.23 g/dL in the placebo group. […] Throughout the entire 13-week treatment period, the cumulative percentage of patients achieving the target hemoglobin range of 10.0-11.0 g/dL inclusive and an increase of ≥1.0 g/dL from baseline was similar between the pooled Comp-1 TIW and QW groups: 100% and 90%, respectively, compared to 40% in the placebo group. Table 3 below provides a safety comparison for patients entering the titration period according to dosing frequency.
# TEAE: treatment emergent adverse event; Treatment-related TEAE: treatment emergent adverse event considered related to treatment; N: number of patients; NE: total number of adverse events occurring; n: number of patients experiencing adverse events.
smiles,measurement,setting,value
"O=C(O)CNC(=O)C1=C(O)C2(CCCC2)n2c(ccc2-c2ccccc2)C1=O [Comp-1, (6′-hydroxy-8′-oxo-3′-phenyl-8′H-spiro[cyclopentane-1,5′-indolizine]-7′-carbonyl)glycine]",IC50,HIF PHD-2,2360 nM
same,mean rate of hemoglobin increase,[1]; 8 mg TIW,0.2839 g/dL/week
same,mean rate of hemoglobin increase,[1]; 12 mg TIW,0.3893 g/dL/week
same,mean rate of hemoglobin increase,[1]; 16 mg TIW,0.4817 g/dL/week
same,mean level of hemoglobin,"[1]; Week 14, pooled QW group",10.09 g/dL
same,mean level of hemoglobin,"[1]; Week 14, pooled TIW group",10.74 g/dL
same,mean hemoglobin level,[1]; pooled QW group,10.91 g/dL
same,mean hemoglobin level,[1]; pooled TIW group,10.84 g/dL
same,change in hemoglobin from baseline,"[1]; Weeks 6-14, pooled QW group",1.78 g/dL
same,change in hemoglobin from baseline,"[1]; Weeks 6-14, pooled TIW group",1.71 g/dL
same,change in hemoglobin level from baseline,"[1]; Weeks 10-14, pooled QW group",1.63 g/dL
same,mean level of hemoglobin,"[1]; Weeks 10-14, pooled QW group",10.77 g/dL
same,change in hemoglobin level from baseline,"[1]; Weeks 10-14, pooled TIW group",1.60 g/dL
same,mean level of hemoglobin,"[1]; Weeks 10-14, pooled TIW group",10.73 g/dL
same,cumulative percentage of patients achieving target hemoglobin range 10.0-11.0 g/dL and increase of ≥1.0 g/dL from baseline,[1]; pooled QW group,90%
same,cumulative percentage of patients achieving target hemoglobin range 10.0-11.0 g/dL and increase of ≥1.0 g/dL from baseline,[1]; pooled TIW group,100%
same,"TEAE, % of patients","[1]; Pooled QW, N = 20",70.0%
same,"TEAE, NE (total number of adverse events)","[1]; Pooled QW, N = 20",18
same,"TEAE, n (number of patients experiencing adverse events)","[1]; Pooled QW, N = 20",14
same,"Treatment-related TEAE, % of patients","[1]; Pooled QW, N = 20",5.0%
same,"Treatment-related TEAE, NE (total number of adverse events)","[1]; Pooled QW, N = 20",1
same,"Treatment-related TEAE, n (number of patients experiencing adverse events)","[1]; Pooled QW, N = 20",1
same,"TEAE, % of patients","[1]; Pooled TIW, N = 19",73.7%
same,"TEAE, NE (total number of adverse events)","[1]; Pooled TIW, N = 19",39
same,"TEAE, n (number of patients experiencing adverse events)","[1]; Pooled TIW, N = 19",14
same,"Treatment-related TEAE, % of patients","[1]; Pooled TIW, N = 19",10.5%
same,"Treatment-related TEAE, NE (total number of adverse events)","[1]; Pooled TIW, N = 19",2
same,"Treatment-related TEAE, n (number of patients experiencing adverse events)","[1]; Pooled TIW, N = 19",2
